The source of these data is publication PMC3809587, “Structure and function of the Smoothened extracellular domain in vertebrate Hedgehog signaling” (eLife, 2013).

“Also recorded” adds a separate entry of the source.

Assay [1] has as its system Hh reporter (8xGli-responsive promoter). Particulars: cited from earlier work.
In another assay the target is T1, mSmo CRD-Fc (Mus musculus, UniProt P56726).
T1 construct: made in house; host or cells: 293F suspension cells (secreted)
T1 sequence (P56726 33-183): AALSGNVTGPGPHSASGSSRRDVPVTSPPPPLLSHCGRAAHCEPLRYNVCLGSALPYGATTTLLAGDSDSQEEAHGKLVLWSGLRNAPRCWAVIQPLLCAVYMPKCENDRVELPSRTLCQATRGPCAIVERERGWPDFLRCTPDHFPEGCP
Description: Ligand affinity chromatography: mSmo CRD-Fc binding to 20(S)-OHC beads. Particulars: free compound added as competitor. As for the experimental part:
After binding was allowed to proceed for 12 hr at 4°C, the resin was washed and captured protein was eluted as described above. The presence of mSmo CRD-Fc was measured by an anti-human HRP-coupled antibody (1:20,000) or anti-human IR800-coupled antibody (1:10,000; for all quantitation, detected by LiCor Odyssey). The presence of zSmo ectodomain protein was measured by colloidal Coomassie staining (GelCode Blue, Pierce/Thermo Scientific). […]

A further assay deals with T2, YFP-mSmo (Mus musculus, UniProt P56726).
T2 construct: Smo^−/− cells stably expressing full-length (FL) YFP-mSmo or ΔCRD-YFP-mSmo were treated with Shh, SAG (100 nM) or 20(S)-OHC (10 μM); expressed in transfected cells
T2 sequence (P56726 33-793): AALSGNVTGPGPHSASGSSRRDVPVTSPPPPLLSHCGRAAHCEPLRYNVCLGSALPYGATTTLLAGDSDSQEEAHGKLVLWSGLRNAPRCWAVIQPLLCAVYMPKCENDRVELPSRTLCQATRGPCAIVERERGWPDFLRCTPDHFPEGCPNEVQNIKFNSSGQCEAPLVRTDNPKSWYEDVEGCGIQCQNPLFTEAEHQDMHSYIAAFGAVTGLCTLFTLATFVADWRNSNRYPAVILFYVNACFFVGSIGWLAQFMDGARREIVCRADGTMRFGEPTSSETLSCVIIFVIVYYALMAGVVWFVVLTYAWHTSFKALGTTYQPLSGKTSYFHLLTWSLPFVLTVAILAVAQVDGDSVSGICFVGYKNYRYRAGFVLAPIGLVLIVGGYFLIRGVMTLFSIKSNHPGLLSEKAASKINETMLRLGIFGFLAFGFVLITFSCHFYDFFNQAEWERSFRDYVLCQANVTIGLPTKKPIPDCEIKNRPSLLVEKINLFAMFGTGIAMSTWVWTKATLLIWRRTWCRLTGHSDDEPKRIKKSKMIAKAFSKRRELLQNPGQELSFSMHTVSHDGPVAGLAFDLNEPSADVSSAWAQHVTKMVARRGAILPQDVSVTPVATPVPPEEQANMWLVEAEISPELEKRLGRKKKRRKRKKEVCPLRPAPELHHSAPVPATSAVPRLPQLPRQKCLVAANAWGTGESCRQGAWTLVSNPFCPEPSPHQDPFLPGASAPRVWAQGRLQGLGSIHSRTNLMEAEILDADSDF
Description: Gli1 and Gli3R immunoblot in Smo−/−:YFP-mSmo cells. The class given is cell-based. Particulars: SAG 100 nM, 20(S)-OHC 10 μM. How it is done: Cultured cells stably expressing YFP-mSmo, ΔCRD-YFP-mSmo, or ΔC-YFP-mSmo were scraped into ice-cold PBS containing SigmaFast Protease inhibitor cocktail (Sigma) and collected as a pellet by centrifugation (1000×g, 10 min, 4°C). Cells were lysed (1 hr, 4°C) by agitation in modified RIPA buffer (50 mM sodium-Tris pH 7.4, 150 mM sodium chloride, 2% NP-40, 0.5% deoxycholate, 0.1% sodium-dodecyl sulfate [SDS], 1 mM dithiothreitol and the SigmaFast Protease inhibitor cocktail). After clarification (20,000×g, 45 min, 4°C), the protein concentration of each lysate was measured using the bicinchoninic acid assay (BCA, Pierce/Thermo Scientific, Rockford, IL). Lysate aliquots containing equal amount of total protein were fractionated on an 8% SDS-PAGE gel and transferred to a nitrocellulose membrane for immunoblotting with anti-Gli1 antibody (#L42B10, 1:500; Cell Signaling, Denvers, MA), anti-GFP antibody (1:5000; Novus, Littleton, CO), anti-Gli3 antibody (AF3690 1:200; R&D, Minneapolis, MN) and anti-p38 antibody (ab31828, 1:2000; Abcam, Cambridge, MA). In Figures 1–4, vertical dashed black lines represent non-contiguous lanes from the same immunoblot juxtaposed for clarity.

A further assay has as its target T3, ΔCRD-YFP-mSmo (Mus musculus, UniProt P56726, DEL68-184).
T3 construct: All mSmo mutants were made using Quickchange or PCR methods in the context of a previously described construct encoding full-length mouse Smo (UniProt P56726); expressed in transfected cells
In words: Hh signaling by ΔCRD-YFP-mSmo in Smo−/− cells (immunoblot, Hh reporter). The following applies: SAG 100 nM, 20(S)-OHC 10 μM. The assay is classed as cell-based. In general terms: In western blotting, separated proteins are transferred to a membrane and probed.

The target of another assay is T4, full-length mSmo (Mus musculus, UniProt P56726).
T4 construct: expressed in transfected cells
T4 sequence (P56726 33-793): as above
Description: Bodipy-cyclopamine binding to Smo-expressing cells by FACS. On the technique in general: A flow cytometer gives signals particle by particle.

The subject of assay [2] is endogenous mSmo in cilia of NIH 3T3 cells. Also on record: method as in Rohatgi et al., 2009. The following applies: ref Rohatgi et al., 2009; cited from earlier work.

T3 sequence (P56726 with tags, fused parts or gaps DEL68-184): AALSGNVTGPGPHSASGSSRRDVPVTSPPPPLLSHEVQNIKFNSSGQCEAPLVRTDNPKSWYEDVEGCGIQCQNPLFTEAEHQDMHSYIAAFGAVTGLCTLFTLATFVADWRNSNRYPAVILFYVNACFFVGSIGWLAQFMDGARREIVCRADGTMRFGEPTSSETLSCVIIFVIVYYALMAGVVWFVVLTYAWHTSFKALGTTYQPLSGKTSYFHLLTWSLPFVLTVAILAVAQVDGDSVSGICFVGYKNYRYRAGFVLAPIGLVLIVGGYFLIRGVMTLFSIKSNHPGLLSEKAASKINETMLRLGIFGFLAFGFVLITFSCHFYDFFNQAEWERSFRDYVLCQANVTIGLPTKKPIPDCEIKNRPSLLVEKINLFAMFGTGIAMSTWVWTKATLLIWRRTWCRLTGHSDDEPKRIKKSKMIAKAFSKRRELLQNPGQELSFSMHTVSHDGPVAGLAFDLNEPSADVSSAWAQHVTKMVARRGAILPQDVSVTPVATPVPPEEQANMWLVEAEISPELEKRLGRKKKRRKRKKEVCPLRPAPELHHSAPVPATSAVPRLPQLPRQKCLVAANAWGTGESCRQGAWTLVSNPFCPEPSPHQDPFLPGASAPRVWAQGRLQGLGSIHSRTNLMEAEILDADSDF

On to `CC(C)CCC[C@@](C)(O)[C@H]1CC[C@H]2[C@@H]3CC=C4C[C@@H](O)CC[C@]4(C)[C@H]3CC[C@@]21C` [20(R)-OHC], for which, in assay [1] (ref Nachtergaele et al., 2012), the “activation of Hh signaling” value is on record as “cannot activate Hh signaling”. Besides, the “inhibition of binding of mSmo CRD-Fc to 20(S)-OHC beads” value (shortened to “inhibition of binding of mSmo CRD-Fc”) on mSmo CRD-Fc is given as “unable to inhibit binding; also recorded: failed to inhibit”. `C#CCC[C@](C)(O)[C@H]1CC[C@H]2[C@@H]3CC=C4C[C@@H](O)CC[C@]4(C)[C@H]3CC[C@@]21C` [20(S)-yne]: in assay [1] (Hh-activation potency, ref Nachtergaele et al., 2012), the “potency relative to 20(S)-OHC” value is reported as about 10 fold. The “inhibition of binding of mSmo CRD-Fc” value at mSmo CRD-Fc is on record as “Binding could be inhibited”. Take `CC(C)CCCC(=O)[C@H]1CC[C@H]2[C@@H]3CC=C4C[C@@H](O)CC[C@]4(C)[C@H]3CC[C@]12C` [20-keto-cholesterol]: the “inhibition of binding of mSmo CRD-Fc” value at mSmo CRD-Fc is “failed to inhibit”. `CC(C)CC[C@H](O)[C@@H](C)[C@H]1CC[C@H]2[C@@H]3CC=C4C[C@@H](O)CC[C@]4(C)[C@H]3CC[C@]12C` [22(S)-OHC]: the “activation of Hh signaling” value in assay [1] (ref Nachtergaele et al., 2012) was “cannot activate Hh signaling”. At mSmo CRD-Fc, the “inhibition of binding of mSmo CRD-Fc” value is on record as “unable to inhibit binding”.

In the case of `CC(C)CCN[C@@H](C)[C@H]1CC[C@H]2[C@@H]3CC=C4C[C@@H](O)CC[C@]4(C)[C@H]3CC[C@]12C` [22-azacholesterol], the “block of signaling induced by SAG or by mSmoM2” value in assay [1] (ref Nedelcu et al., 2013) is on record as “does not block signaling induced by SAG or by mSmoM2”. Take `CCC(C)n1ncn(-c2ccc(N3CCN(c4ccc(OCC5COC(Cn6cncn6)(c6ccc(Cl)cc6Cl)O5)cc4)CC3)cc2)c1=O` (stereo not shown) [Itraconazole]: the “inhibition of binding of mSmo CRD-Fc” value at mSmo CRD-Fc is “failed to inhibit the binding”. Take `CNC1CCC(N(Cc2cccc(-c3ccncc3)c2)C(=O)c2sc3ccccc3c2Cl)CC1` (stereo not shown) [SAG]: at YFP-mSmo, the Gli3R level entry is given as “loss of the repressor form of Gli3 (Gli3R) was observed” and the “activation of Hh target gene Gli1” value was “could activate a Hh target gene, Gli1”. The “response of ΔCRD-YFP-mSmo to agonist (Hh target genes, Gli3R)” value on ΔCRD-YFP-mSmo was “retained its ability to respond to SAG”. In addition, the “inhibition of binding of mSmo CRD-Fc” value at mSmo CRD-Fc was “failed to inhibit the binding”. Consider `Cc1nn(-c2ccccc2)c(C)c1/C=N/N1CCN(Cc2ccccc2)CC1` [SANT-1], for which the “competition of bodipy-cyclopamine binding” value on full-length mSmo is listed as “can be competed”. Further, the “Shh-induced Smo accumulation in cilia” value in assay [2] is “prevent Shh-induced Smo accumulation in cilia”. Besides, the “inhibition of binding of mSmo CRD-Fc” value at mSmo CRD-Fc was “failed to inhibit the binding”. Regarding `CS(=O)(=O)c1ccc(C(=O)Nc2ccc(Cl)c(-c3ccccn3)c2)c(Cl)c1` [Vismodegib], in assay [2], the “Shh-induced Smo accumulation in cilia” value was “prevent Shh-induced Smo accumulation in cilia”. With `CC(C)CCC[C@@](C)(O)[C@@H]1CC[C@@H]2[C@H]3CC=C4C[C@H](O)CC[C@@]4(C)[C@@H]3CC[C@]21C` [ent-20(S)-OHC], in assay [1] (ref Nachtergaele et al., 2012), the “activation of Hh signaling” value is reported as “cannot activate Hh signaling”. Besides, the “inhibition of binding of mSmo CRD-Fc” value on mSmo CRD-Fc was “unable to inhibit binding”.
